In ChEMBL document CHEMBL1148236, “Synthesis and structure-activity relationship of 3-arylbenzoxazines as selective estrogen receptor beta agonists” (Bioorg Med Chem Lett, 2004) one finds IC50 and EC50 data, which are given here for 16 molecules.

In experiment [1] the target is T1, Estrogen receptor beta (Homo sapiens, UniProt Q92731).
Description: Binding affinity towards estrogen receptor beta by [3H]17-beta-estradiol displacement.
Experiment [2] concerns the target T2, Estrogen receptor (Homo sapiens, UniProt P03372).
T2 sequence (P03372 whole entry): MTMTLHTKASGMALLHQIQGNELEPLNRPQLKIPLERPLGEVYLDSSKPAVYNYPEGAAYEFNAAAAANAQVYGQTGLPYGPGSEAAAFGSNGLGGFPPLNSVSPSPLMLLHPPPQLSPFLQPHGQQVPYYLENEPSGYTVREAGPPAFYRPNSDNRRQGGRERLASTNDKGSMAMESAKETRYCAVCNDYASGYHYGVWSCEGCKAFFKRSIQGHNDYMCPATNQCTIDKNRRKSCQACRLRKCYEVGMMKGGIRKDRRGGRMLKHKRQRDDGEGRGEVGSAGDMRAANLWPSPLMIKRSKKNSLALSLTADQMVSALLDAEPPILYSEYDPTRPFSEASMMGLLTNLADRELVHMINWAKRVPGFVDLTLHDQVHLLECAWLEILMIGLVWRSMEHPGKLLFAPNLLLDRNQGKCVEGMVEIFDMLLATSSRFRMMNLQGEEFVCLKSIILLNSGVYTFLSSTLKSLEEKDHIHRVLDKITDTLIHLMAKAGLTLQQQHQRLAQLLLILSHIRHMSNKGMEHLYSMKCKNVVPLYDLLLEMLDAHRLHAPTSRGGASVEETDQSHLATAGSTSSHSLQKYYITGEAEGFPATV
Description: Ability to activate estrogen receptor 1-mediated transcription.

The target of experiment [3] is T1, Estrogen receptor beta. This is another data set of the same source.
Description: Ability to activate estrogen receptor 2-mediated transcription.
Experiment [4] addresses T2, Estrogen receptor. The source holds these as a separate data set.
Description: Binding affinity towards estrogen receptor alpha by [3H]17-beta-estradiol displacement.

Structures are written as SMILES.

T1 sequence (Q92731 whole entry): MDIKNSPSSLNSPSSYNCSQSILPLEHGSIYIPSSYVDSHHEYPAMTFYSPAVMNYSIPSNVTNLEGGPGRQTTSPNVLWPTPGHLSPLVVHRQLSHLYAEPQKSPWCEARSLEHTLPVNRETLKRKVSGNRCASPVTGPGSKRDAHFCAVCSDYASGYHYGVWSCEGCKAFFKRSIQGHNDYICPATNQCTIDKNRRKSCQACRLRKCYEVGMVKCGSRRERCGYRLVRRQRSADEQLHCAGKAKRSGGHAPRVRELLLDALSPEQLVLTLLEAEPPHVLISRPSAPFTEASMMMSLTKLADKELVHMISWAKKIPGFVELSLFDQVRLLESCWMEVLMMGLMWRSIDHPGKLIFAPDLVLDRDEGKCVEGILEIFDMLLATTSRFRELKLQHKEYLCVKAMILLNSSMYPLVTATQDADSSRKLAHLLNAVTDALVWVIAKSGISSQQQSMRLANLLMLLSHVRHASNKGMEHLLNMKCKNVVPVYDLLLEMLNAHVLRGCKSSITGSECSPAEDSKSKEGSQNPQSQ

Usually IC50 stands for the concentration that gives 50% inhibition. Low readings indicate higher potency, high ones lower potency. The term EC50 denotes the midpoint of the concentration-response curve. Turning to `CC1Oc2cc(O)ccc2N=C1c1ccc(O)cc1` (centres undefined), the figures for the IC50 at Estrogen receptor beta [1] and on Estrogen receptor [4] were 330 nM and 1700 nM, respectively. The figures for the EC50 on Estrogen receptor [2] and on Estrogen receptor beta [3] were 64 nM and 30 nM, respectively.

`Cc1cc(O)cc2c1N=C(c1ccc(O)c(Br)c1)C(C)O2` (centres undefined): the IC50 is 90 nM on Estrogen receptor beta [1] and 320 nM on Estrogen receptor [4]. Also, the EC50 at Estrogen receptor [2] was determined as 46 nM; at Estrogen receptor beta [3] it was 16 nM.

For `CC1Oc2cc(O)cc(O)c2N=C1c1ccc(O)cc1` (stereo in doubt; 4i), the IC50 at Estrogen receptor beta [1] came out at 310 nM; against Estrogen receptor [4], 2900 nM. For the same molecule, the EC50 at Estrogen receptor [2] is 150 nM; on Estrogen receptor beta [3], 47 nM.

For the molecule `CCC1Oc2cc(O)ccc2N=C1c1ccc(O)cc1` (centres undefined), the half-inhibitory concentration (IC50) on Estrogen receptor beta [1] is 200 nM; against Estrogen receptor [4], 850 nM. The EC50 was 59 nM at Estrogen receptor [2] and 7 nM on Estrogen receptor beta [3].

As for `Oc1ccc2c(c1)CC1Oc3cc(O)ccc3N=C21` (centres undefined), the IC50 is 1400 nM at Estrogen receptor beta [1] and 5600 nM against Estrogen receptor [4]. Besides, the EC50 at Estrogen receptor [2] was 900 nM; at Estrogen receptor beta [3] it was 77 nM.

Turning to `CCC1Oc2cc(O)cc(C)c2N=C1c1ccc(O)c(Br)c1` (centres undefined), the IC50 was 90 nM at Estrogen receptor beta [1] and 180 nM against Estrogen receptor [4]. Further, the EC50 at Estrogen receptor [2] worked out at 170 nM; on Estrogen receptor beta [3] it was 8 nM.

Consider `Oc1ccc2c(c1)CCC1Oc3cc(O)ccc3N=C21` (centres undefined), for which the results for the IC50 on Estrogen receptor beta [1] and against Estrogen receptor [4] were 2600 nM and 6000 nM, respectively. Besides, the EC50 is 12000 nM at Estrogen receptor [2] and 240 nM at Estrogen receptor beta [3].

Turning to `Oc1ccc(C2=Nc3ccc(O)cc3OC2)cc1`, the IC50 on Estrogen receptor beta [1] amounted to 2900 nM; on Estrogen receptor [4] it was 16000 nM. Besides, the results for the EC50 on Estrogen receptor [2] and at Estrogen receptor beta [3] were 6900 nM and 160 nM, respectively.

On to `Oc1ccc(C2=Nc3c(O)cc(O)cc3OC2)cc1`, for which the IC50 against Estrogen receptor beta [1] stood at 2800 nM; at Estrogen receptor [4] it was 33000 nM. In addition, the EC50 on Estrogen receptor [2] was 1800 nM; on Estrogen receptor beta [3] it was 270 nM.

On to `CC1(C)Oc2cc(O)cc(O)c2N=C1c1ccc(O)c(Br)c1`, for which the IC50 was found to be 1700 nM against Estrogen receptor beta [1] and 6000 nM at Estrogen receptor [4]. The EC50 came out at 1400 nM at Estrogen receptor [2] and 120 nM on Estrogen receptor beta [3].

Consider `CC1Oc2cc(O)cc(O)c2N=C1c1ccc(O)cc1` (single isomer, unassigned; enantiomer B), for which the results for the IC50 on Estrogen receptor beta [1] and against Estrogen receptor [4] were 1100 nM and 6300 nM, respectively. For the same molecule, the EC50 at Estrogen receptor [2] came to 290 nM; at Estrogen receptor beta [3], 74 nM.

As for `CCC1Oc2cc(O)cc(O)c2N=C1c1ccc(O)cc1` (centres undefined), the results for the IC50 against Estrogen receptor beta [1] and on Estrogen receptor [4] were 120 nM and 1200 nM, respectively. The EC50 on Estrogen receptor [2] came out at 170 nM; on Estrogen receptor beta [3], 26 nM.

Turning to `CC1Oc2cc(O)cc(O)c2N=C1c1ccc(O)cc1` (single isomer, unassigned), the figures for the IC50 at Estrogen receptor beta [1] and against Estrogen receptor [4] were 240 nM and 2800 nM, respectively. In addition, the EC50 was determined as 140 nM on Estrogen receptor [2] and 50 nM at Estrogen receptor beta [3].

`CCC1Oc2cc(O)cc(O)c2N=C1c1ccc(O)c(Br)c1` (centres undefined): the figures for the IC50 against Estrogen receptor beta [1] and at Estrogen receptor [4] were 1100 nM and 5300 nM, respectively. The EC50 amounted to 2000 nM at Estrogen receptor [2] and 180 nM at Estrogen receptor beta [3].

Regarding `CC1(C)Oc2cc(O)ccc2N=C1c1ccc(O)cc1`, the figures for the IC50 on Estrogen receptor beta [1] and against Estrogen receptor [4] were 5600 nM and 8600 nM, respectively. The EC50 is 3100 nM on Estrogen receptor [2] and 140 nM at Estrogen receptor beta [3].

As to `CCCC1Oc2cc(O)ccc2N=C1c1ccc(O)cc1` (centres undefined), the IC50 amounted to 320 nM on Estrogen receptor beta [1] and 1700 nM against Estrogen receptor [4]. Further, the results for the EC50 on Estrogen receptor [2] and at Estrogen receptor beta [3] were 1700 nM and 18 nM, respectively.
